Molecular target: human PCSK9 (Homo sapiens, UniProt Q8NBP7)
Assay: PCSK9 ligand binding TR-FRET assay (interference with binding of human PCSK9 to human LDLR)
Settings: for Max % inhibition: PCSK9 FRET assay, efficacy (Amax), 100% = 1 uM unlabeled human PCSK9, 0% = DMSO; for IC50: TR-FRET, human PCSK9 Alexa Fluor 647 / human LDLR extracellular domain-Europium Kryptate, read-out: PCSK9 FRET Assay IC50
Summary of the method: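 Threefold compound dilutions were pre-incubated 30 min with PCSK9, after which 4 nM Europium Kryptate-tagged human LDLR ectodomain was added for a further 2 h.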

human PCSK9, sequence (Q8NBP7 153-692): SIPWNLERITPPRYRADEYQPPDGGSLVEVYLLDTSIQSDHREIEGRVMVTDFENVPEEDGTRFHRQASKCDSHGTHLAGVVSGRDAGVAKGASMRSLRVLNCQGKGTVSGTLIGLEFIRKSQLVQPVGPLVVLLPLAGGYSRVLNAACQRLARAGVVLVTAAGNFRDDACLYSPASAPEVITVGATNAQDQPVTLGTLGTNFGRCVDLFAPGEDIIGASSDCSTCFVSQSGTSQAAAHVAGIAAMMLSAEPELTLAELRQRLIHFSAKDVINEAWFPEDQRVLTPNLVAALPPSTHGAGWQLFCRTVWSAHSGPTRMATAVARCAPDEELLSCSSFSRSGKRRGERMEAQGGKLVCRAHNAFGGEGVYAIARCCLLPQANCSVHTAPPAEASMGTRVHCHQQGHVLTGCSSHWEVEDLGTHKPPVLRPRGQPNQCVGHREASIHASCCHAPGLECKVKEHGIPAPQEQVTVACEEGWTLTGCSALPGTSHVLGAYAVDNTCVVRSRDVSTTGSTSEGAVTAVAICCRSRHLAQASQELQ
human PCSK9, sequence (Q8NBP7 31-152 partner limits assumed): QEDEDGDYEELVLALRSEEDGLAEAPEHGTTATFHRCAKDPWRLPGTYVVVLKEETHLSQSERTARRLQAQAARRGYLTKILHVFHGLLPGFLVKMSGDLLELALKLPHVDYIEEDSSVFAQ

SMILES	Max % inhibition	IC50
COC[C@@H]1NC(=O)[C@H](C)N(Cc2ccc(Cl)cc2Oc2ccc(-n3cnc(CN4CCCC4)c3C)cc2)C(=O)C[C@@H](Cc2ccccc2)C(=O)N(C)[C@H]2CCCC[C@@H]2NC(=O)C[C@H](Cc2ccc(Cl)cc2)N(C)C1=O [Compound 19, (4S,7S,10S,14R,16aS,20aS)-14-benzyl-11-(4-chloro-2-(4-(5-methyl-4-(pyrrolidin-1-ylmethyl)-1H-imidazol-1-yl)phenoxy)benzyl)-4-(4-chlorobenzyl)-7-(methoxymethyl)-5,10,16-trimethylhexadecahydrobenzo[l][1,4,7,11,14]pentaazacyclooctadecine-2,6,9,12,15(3H)-pentaone]	106.65%	1.5 nM
COC[C@@H]1NC(=O)[C@@H](C)N(Cc2ccc(Cl)cc2Oc2ccc(-c3cnc(CN(C)C)n3C)cc2)C(=O)C[C@@H](Cc2ccccc2)C(=O)N(C)[C@@H](C)CNC(=O)C[C@H](Cc2ccc(Cl)cc2)N(C)C1=O [Compound 12, (2R,5S,8S,13S,16R)-16-benzyl-1-(4-chloro-2-(4-(2-((dimethylamino)methyl)-1-methyl-1H-imidazol-5-yl)phenoxy)benzyl)-8-(4-chlorobenzyl)-5-(methoxymethyl)-2,7,13,14-tetramethyl-1,4,7,11,14-pentaazacyclooctadecane-3,6,10,15,18-pentaone]	98.09%	74.1 nM
COC[C@@H]1NC(=O)[C@H](CCN)N(Cc2ccc(Cl)cc2Oc2ccc(-c3cnc(CN(C)C)n3C)cc2)C(=O)C[C@@H](Cc2ccccc2)C(=O)N(C)[C@H]2CCCC[C@@H]2NC(=O)C[C@H](Cc2ccc(Cl)cc2)N(C)C1=O (single isomer, unassigned) [Compound 109]	76.18%	7.6 nM
COC[C@@H]1NC(=O)[C@H](C)N(Cc2ccc(Cl)cc2Oc2ccc(-c3cnc4n3CCN(C(C)C)C4)cc2)C(=O)C[C@@H](Cc2ccccc2)C(=O)N(C)[C@@H](C)CNC(=O)C[C@H](Cc2ccc(Cl)cc2)N(C)C1=O.O=C(O)C(F)(F)F [Compound 123, (2S,5S,8S,13S,16R)-16-benzyl-1-(4-chloro-2-(4-(7-isopropyl-5,6,7,8-tetrahydroimidazo[1,2-a]pyrazin-3-yl)phenoxy)benzyl)-8-(4-chlorobenzyl)-5-(methoxymethyl)-2,7,13,14-tetramethyl-1,4,7,11,14-pentaazacyclooctadecane-3,6,10,15,18-pentaone trifluoroacetate]	74.19%	3.4 nM
CCOC(=O)c1ncn(-c2ccc(Oc3cc(Cl)ccc3CN3C(=O)C[C@@H](Cc4ccccc4)C(=O)N(C)[C@@H](C)CNC(=O)C[C@H](Cc4ccc(Cl)cc4)N(C)C(=O)[C@H](COC)NC(=O)[C@@H]3C)cc2)c1C [Compound 149, ethyl 1-(4-(2-(((2S,5S,8S,13S,16R)-16-benzyl-8-(4-chlorobenzyl)-5-(methoxymethyl)-2,7,13,14-tetramethyl-3,6,10,15,18-pentaoxo-1,4,7,11,14-pentaazacyclooctadecan-1-yl)methyl)-5-chlorophenoxy)phenyl)-5-methyl-1H-imidazole-4-carboxylate]	72.43%	18.7 nM
C[C@@H]1C(=O)N[C@@H](CO)C(=O)N(C)[C@@H](Cc2ccc(Cl)cc2)CC(=O)N[C@H]2CCCC[C@@H]2N(C)C(=O)[C@H](Cc2ccccc2)CC(=O)N1Cc1ccc(Cl)cc1Oc1ccc(-c2cnc(CN(C)C)n2C)cc1 [Compound 194, (4S,7S,10R,14R,16aS,20aS)-14-benzyl-11-(4-chloro-2-(4-(2-((dimethylamino)methyl)-1-methyl-1H-imidazol-5-yl)phenoxy)benzyl)-4-(4-chlorobenzyl)-7-(hydroxymethyl)-5,10,16-trimethylhexadecahydrobenzo[l][1,4,7,11,14]pentaazacyclooctadecine-2,6,9,12,15(3H)-pentaone]	96.92%	5.5 nM
